From PubChem BioAssay (NCI)
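Each compound was tested at five concentrations against cells in 96-well plates for 48 hours. At the GI50, growth is halved. Definition used: TGI = concentration required for complete inhibition of growth.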

Legend:
Experiment in all cases: inhibition of tumour cell growth, NCI panel, 48 h
RPMI-8226 leukemia = test system: RPMI-8226 leukemia
K-562 leukemia = test system: K-562 leukemia
HOP-92 NSCLC = test system: HOP-92 NSCLC
T-47D breast = test system: T-47D breast
UACC-62 melanoma = test system: UACC-62 melanoma
IGROV1 ovarian = test system: IGROV1 ovarian
SW-620 colon = test system: SW-620 colon
SR leukemia = test system: SR leukemia
OVCAR-5 ovarian = test system: OVCAR-5 ovarian
SF-295 CNS = test system: SF-295 CNS
COLO 205 colon = test system: COLO 205 colon
HOP-62 NSCLC = test system: HOP-62 NSCLC
HL-60(TB) leukemia = test system: HL-60(TB) leukemia
TK-10 renal = test system: TK-10 renal
OVCAR-3 ovarian = test system: OVCAR-3 ovarian
SK-MEL-5 melanoma = test system: SK-MEL-5 melanoma
BT-549 breast = test system: BT-549 breast
ACHN renal = test system: ACHN renal
EKVX NSCLC = test system: EKVX NSCLC
SK-OV-3 ovarian = test system: SK-OV-3 ovarian
NCI-H522 lung = test system: NCI-H522 lung
SNB-19 CNS = test system: SNB-19 CNS
DU-145 prostate = test system: DU-145 prostate
786-0 renal = test system: 786-0 renal
KM12 colon = test system: KM12 colon
SK-MEL-2 melanoma = test system: SK-MEL-2 melanoma
NCI-H23 lung = test system: NCI-H23 lung
LOX IMVI melanoma = test system: LOX IMVI melanoma
MCF7 breast = test system: MCF7 breast
RXF 393 renal = test system: RXF 393 renal
HCC-2998 colon = test system: HCC-2998 colon
HS 578T breast = test system: HS 578T breast
HCT-15 colon = test system: HCT-15 colon
NCI-H226 lung = test system: NCI-H226 lung
OVCAR-8 ovarian = test system: OVCAR-8 ovarian
SN12C renal = test system: SN12C renal
NCI-H460 lung = test system: NCI-H460 lung
PC-3 prostate = test system: PC-3 prostate
M14 melanoma = test system: M14 melanoma
NCI/ADR-RES ovarian = test system: NCI/ADR-RES ovarian
MDA-MB-231 breast = test system: MDA-MB-231 breast
SF-268 CNS = test system: SF-268 CNS
HCT-116 colon = test system: HCT-116 colon
CCRF-CEM leukemia = test system: CCRF-CEM leukemia
UACC-257 melanoma = test system: UACC-257 melanoma
MDA-MB-435 = test system: MDA-MB-435
SK-MEL-28 melanoma = test system: SK-MEL-28 melanoma
A549 NSCLC = test system: A549 NSCLC
UO-31 renal = test system: UO-31 renal
OVCAR-4 ovarian = test system: OVCAR-4 ovarian
U251 CNS = test system: U251 CNS
SF-539 CNS = test system: SF-539 CNS
CAKI-1 renal = test system: CAKI-1 renal
MOLT-4 leukemia = test system: MOLT-4 leukemia
MALME-3M melanoma = test system: MALME-3M melanoma
HT29 colon = test system: HT29 colon
SNB-75 CNS = test system: SNB-75 CNS

Q: What does the source list for CCN(CC)CCn1c(N)c(-c2nc3ccccc3n2C)c2nc(C#N)c(C#N)nc21?
A: GI50 (RPMI-8226 leukemia): 1.97 µM; TGI (RPMI-8226 leukemia): > 12.1 µM; GI50 (K-562 leukemia): 3.31 µM; TGI (K-562 leukemia): > 42.2 µM; GI50 (HOP-92 NSCLC): 2.5 µM; TGI (HOP-92 NSCLC): 12.1 µM; GI50 (T-47D breast): 1.68 µM; GI50 (UACC-62 melanoma): 3.44 µM; TGI (UACC-62 melanoma): 15 µM; GI50 (IGROV1 ovarian): 1.3 µM; TGI (IGROV1 ovarian): 14.3 µM; GI50 (SW-620 colon): 2.59 µM; TGI (SW-620 colon): > 21.8 µM; GI50 (SR leukemia): 12.2 µM; TGI (SR leukemia): > 50 µM; GI50 (OVCAR-5 ovarian): 3.96 µM; TGI (OVCAR-5 ovarian): 12.7 µM; GI50 (SF-295 CNS): 5.62 µM; TGI (SF-295 CNS): 15.6 µM; GI50 (COLO 205 colon): 3.84 µM; TGI (COLO 205 colon): > 28.1 µM; GI50 (HOP-62 NSCLC): 2.65 µM; TGI (HOP-62 NSCLC): 11 µM; GI50 (HL-60(TB) leukemia): 2.84 µM; TGI (HL-60(TB) leukemia): > 50 µM; GI50 (TK-10 renal): 7.16 µM; TGI (TK-10 renal): 14.2 µM; GI50 (OVCAR-3 ovarian): 1.52 µM; TGI (OVCAR-3 ovarian): 7.31 µM; GI50 (SK-MEL-5 melanoma): 3.04 µM; TGI (SK-MEL-5 melanoma): 12.8 µM; GI50 (BT-549 breast): 7.64 µM; TGI (BT-549 breast): 18.3 µM; GI50 (ACHN renal): 0.696 µM; TGI (ACHN renal): 1.53 µM; GI50 (EKVX NSCLC): 7.1 µM; TGI (EKVX NSCLC): 20.5 µM; GI50 (SK-OV-3 ovarian): 5.21 µM; TGI (SK-OV-3 ovarian): 14.3 µM; GI50 (NCI-H522 lung): 3.72 µM; TGI (NCI-H522 lung): 24.9 µM; GI50 (SNB-19 CNS): 7.3 µM; TGI (SNB-19 CNS): 21.5 µM; GI50 (DU-145 prostate): 3.93 µM; TGI (DU-145 prostate): 13 µM; GI50 (786-0 renal): 1.01 µM; TGI (786-0 renal): 2.91 µM; GI50 (KM12 colon): 5.65 µM; TGI (KM12 colon): 20.3 µM; GI50 (SK-MEL-2 melanoma): 6.28 µM; TGI (SK-MEL-2 melanoma): 25.6 µM; GI50 (NCI-H23 lung): 1.7 µM; TGI (NCI-H23 lung): 16.2 µM; GI50 (LOX IMVI melanoma): 0.97 µM; TGI (LOX IMVI melanoma): 2.62 µM; GI50 (MCF7 breast): 3.08 µM; TGI (MCF7 breast): > 50 µM; GI50 (RXF 393 renal): 1.98 µM; TGI (RXF 393 renal): 4.46 µM; GI50 (HCC-2998 colon): 0.696 µM; TGI (HCC-2998 colon): 1.41 µM; GI50 (HS 578T breast): 2.52 µM; TGI (HS 578T breast): 11.7 µM; GI50 (HCT-15 colon): 5.9 µM; TGI (HCT-15 colon): > 27.1 µM; GI50 (NCI-H226 lung): 9.57 µM; TGI (NCI-H226 lung): 39.8 µM; GI50 (OVCAR-8 ovarian): 3.43 µM; TGI (OVCAR-8 ovarian): 13.8 µM; GI50 (SN12C renal): 3.09 µM; TGI (SN12C renal): 14.2 µM; GI50 (NCI-H460 lung): 4.58 µM; TGI (NCI-H460 lung): 38.5 µM; GI50 (PC-3 prostate): 1.8 µM; TGI (PC-3 prostate): > 19.5 µM; GI50 (M14 melanoma): 7.21 µM; TGI (M14 melanoma): 30.8 µM; GI50 (NCI/ADR-RES ovarian): 3.1 µM; TGI (NCI/ADR-RES ovarian): 8.86 µM; GI50 (MDA-MB-231 breast): 0.295 µM; TGI (MDA-MB-231 breast): 1.71 µM; GI50 (SF-268 CNS): 3.64 µM; TGI (SF-268 CNS): 22.4 µM; GI50 (HCT-116 colon): 1.94 µM; TGI (HCT-116 colon): > 18.5 µM; GI50 (CCRF-CEM leukemia): 4.25 µM; TGI (CCRF-CEM leukemia): 37.9 µM; GI50 (UACC-257 melanoma): 2.23 µM; TGI (UACC-257 melanoma): 10.3 µM; GI50 (MDA-MB-435): 6.23 µM; TGI (MDA-MB-435): > 32.4 µM; GI50 (SK-MEL-28 melanoma): 0.6 µM; TGI (SK-MEL-28 melanoma): 3.02 µM; GI50 (A549 NSCLC): 3.2 µM; TGI (A549 NSCLC): 13.7 µM; GI50 (UO-31 renal): 2.06 µM; TGI (UO-31 renal): 6.61 µM; GI50 (OVCAR-4 ovarian): 1.86 µM; TGI (OVCAR-4 ovarian): 9.91 µM; GI50 (U251 CNS): 1.27 µM; TGI (U251 CNS): 4.06 µM; GI50 (SF-539 CNS): 2.8 µM; TGI (SF-539 CNS): 9.43 µM; GI50 (CAKI-1 renal): 3.7 µM; TGI (CAKI-1 renal): 11.2 µM; GI50 (MOLT-4 leukemia): 1.81 µM; TGI (MOLT-4 leukemia): 11.1 µM

Q: Which TGI (RPMI-8226 leukemia) does the source give for CC(=O)c1c(-c2ccco2)c(C#N)c(=S)n(C2OC(CO)C(O)C(O)C2O)c1-c1ccccc1 (stereo not drawn) here?
A: > 100 µM

Q: And the TGI (K-562 leukemia)?
A: > 100 µM

Q: What about the TGI (T-47D breast) of the same compound?
A: > 100 µM

Q: What about the TGI (UACC-62 melanoma) of the same compound?
A: > 100 µM

Q: And the TGI (IGROV1 ovarian)?
A: > 100 µM

Q: What about the TGI (SW-620 colon) of the same compound?
A: > 100 µM

Q: And the TGI (MALME-3M melanoma)?
A: > 100 µM

Q: And the TGI (SR leukemia)?
A: > 100 µM

Q: What about the TGI (OVCAR-5 ovarian) of the same compound?
A: > 100 µM

Q: What about the TGI (SF-295 CNS) of the same compound?
A: > 100 µM

Q: And the TGI (COLO 205 colon)?
A: > 100 µM

Q: And the TGI (HOP-62 NSCLC)?
A: > 100 µM

Q: And the TGI (HL-60(TB) leukemia)?
A: 85.9 µM

Q: And the TGI (TK-10 renal)?
A: > 100 µM

Q: And the TGI (OVCAR-3 ovarian)?
A: > 100 µM

Q: And the TGI (SK-MEL-5 melanoma)?
A: > 100 µM

Q: What about the TGI (BT-549 breast) of the same compound?
A: > 100 µM

Q: What about the TGI (ACHN renal) of the same compound?
A: > 100 µM

Q: What about the TGI (EKVX NSCLC) of the same compound?
A: > 100 µM

Q: And the TGI (SK-OV-3 ovarian)?
A: > 100 µM

Q: And the TGI (SNB-19 CNS)?
A: 59.7 µM

Q: And the TGI (DU-145 prostate)?
A: > 100 µM

Q: And the TGI (KM12 colon)?
A: > 100 µM

Q: What about the TGI (NCI-H23 lung) of the same compound?
A: > 100 µM

Q: And the TGI (HT29 colon)?
A: > 100 µM

Q: What about the TGI (LOX IMVI melanoma) of the same compound?
A: > 100 µM

Q: What about the TGI (MCF7 breast) of the same compound?
A: > 100 µM

Q: What about the TGI (RXF 393 renal) of the same compound?
A: > 100 µM

Q: What about the TGI (HS 578T breast) of the same compound?
A: > 100 µM

Q: What about the TGI (HCT-15 colon) of the same compound?
A: > 100 µM

Q: What about the TGI (SNB-75 CNS) of the same compound?
A: > 100 µM

Q: And the TGI (OVCAR-8 ovarian)?
A: > 100 µM

Q: What about the TGI (SN12C renal) of the same compound?
A: > 100 µM

Q: What about the TGI (NCI-H460 lung) of the same compound?
A: > 100 µM

Q: What about the TGI (PC-3 prostate) of the same compound?
A: > 100 µM

Q: And the TGI (M14 melanoma)?
A: > 100 µM

Q: What about the TGI (NCI/ADR-RES ovarian) of the same compound?
A: > 100 µM

Q: What about the TGI (MDA-MB-231 breast) of the same compound?
A: > 100 µM

Q: What about the TGI (SF-268 CNS) of the same compound?
A: > 100 µM

Q: What about the TGI (HCT-116 colon) of the same compound?
A: > 100 µM

Q: What about the TGI (CCRF-CEM leukemia) of the same compound?
A: > 100 µM

Q: What about the TGI (UACC-257 melanoma) of the same compound?
A: > 100 µM

Q: What about the TGI (MDA-MB-435) of the same compound?
A: > 100 µM

Q: And the TGI (SK-MEL-28 melanoma)?
A: > 100 µM

Q: And the TGI (A549 NSCLC)?
A: > 100 µM

Q: And the TGI (UO-31 renal)?
A: > 100 µM

Q: And the TGI (OVCAR-4 ovarian)?
A: > 100 µM

Q: What about the TGI (U251 CNS) of the same compound?
A: > 100 µM

Q: What about the TGI (SF-539 CNS) of the same compound?
A: > 100 µM

Q: And the TGI (CAKI-1 renal)?
A: > 100 µM

Q: And the TGI (MOLT-4 leukemia)?
A: > 100 µM
